# “And” between values parts separate entries of the source, which are not always exact repeats. Equal values may be shown once. Read-outs that look alike come from different tables or passages of the source.
# Key:
# [1] = biological target: T1, hMAO-A (Homo sapiens, UniProt P21397); test: MAO inhibition assay (Amplex Red, fluorimetric), MAO-A; settings: for inhibition at 20 µM: read-out: Percentage Inhibition at 20 μM MAO-A, 20 μM
# T1 sequence (P21397 1-527): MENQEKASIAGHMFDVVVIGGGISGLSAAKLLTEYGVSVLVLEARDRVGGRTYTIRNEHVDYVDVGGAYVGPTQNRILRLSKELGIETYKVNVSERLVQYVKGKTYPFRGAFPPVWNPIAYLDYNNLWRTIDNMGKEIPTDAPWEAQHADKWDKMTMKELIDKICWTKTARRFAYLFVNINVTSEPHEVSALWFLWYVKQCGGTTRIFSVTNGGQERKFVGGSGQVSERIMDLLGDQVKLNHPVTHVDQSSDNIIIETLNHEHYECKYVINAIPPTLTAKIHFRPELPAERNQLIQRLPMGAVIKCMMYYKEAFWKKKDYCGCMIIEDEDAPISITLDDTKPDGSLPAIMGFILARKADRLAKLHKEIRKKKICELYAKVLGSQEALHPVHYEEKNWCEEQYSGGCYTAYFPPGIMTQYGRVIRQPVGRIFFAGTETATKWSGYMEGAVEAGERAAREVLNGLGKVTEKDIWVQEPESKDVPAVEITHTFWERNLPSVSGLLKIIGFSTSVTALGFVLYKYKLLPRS
# [2] = biological target: T2, hMAO-B (Homo sapiens, UniProt P27338); test: MAO inhibition assay (Amplex Red, fluorimetric), MAO-B
# T2 sequence (P27338 1-520): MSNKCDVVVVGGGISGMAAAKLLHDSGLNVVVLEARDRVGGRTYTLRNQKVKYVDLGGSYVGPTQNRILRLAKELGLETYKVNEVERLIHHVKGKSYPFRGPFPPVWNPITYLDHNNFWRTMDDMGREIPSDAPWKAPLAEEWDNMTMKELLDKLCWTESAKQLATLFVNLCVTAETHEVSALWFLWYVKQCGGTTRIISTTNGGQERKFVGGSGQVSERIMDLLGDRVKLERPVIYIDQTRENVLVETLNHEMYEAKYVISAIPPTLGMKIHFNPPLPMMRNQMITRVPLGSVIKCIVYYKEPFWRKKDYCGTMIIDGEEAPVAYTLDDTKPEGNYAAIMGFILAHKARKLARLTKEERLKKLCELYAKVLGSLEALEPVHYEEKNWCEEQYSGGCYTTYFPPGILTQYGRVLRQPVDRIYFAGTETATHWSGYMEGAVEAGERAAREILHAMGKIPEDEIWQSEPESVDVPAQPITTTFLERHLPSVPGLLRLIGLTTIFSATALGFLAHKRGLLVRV
# [3] = biological target: T1, hMAO-A; test: Reversibility inhibition study (dilution method); assay type: biochemical; set-up: purchased Sigma-Aldrich; settings: for reversibility of hMAO-A inhibition: dilution method
# Procedure: Reversibility inhibition investigations were conducted using dilution methods as per the reported protocol, and all experiments were performed in triplicate. […] Substrate and buffer solutions were used for the dilution.
# [4] = DPPH free radical scavenging antioxidant assay; settings: for antioxidant potential in the DPPH assay: concentration not given
# Procedure: H2O2 produced during metabolic events in the brain may be crucial for signaling and metabolic functions. The compounds were screened to check their potential to inhibit ROS through the DPPH assay. […] However, further studies are required to confirm this effect.
# The DPPH approach, which gauges the free radical scavenging activity, was used to evaluate the antioxidant properties of the compounds. The test was performed according to the literature method. The stock solution of DPPH (0.5 mM) was prepared, and methanol was used to create each dilution. The different concentrations (10, 25, 50, 75, and 100 μM) of the test compounds (C1–C15) were prepared and compared with the standard ascorbic acid. The percentage antioxidant activity of the compounds was calculated using the following formula: % Antioxidant activity = [(Aabsorbance − Atest)/Aabsorbance] × 100.
# [5] = tested on: MAO-A; settings: Figure 1, read-out: MAO-A inhibition, cited from earlier work
# [6] = biological target: T1, hMAO-A; set-up: purchased Sigma-Aldrich; settings: Figure 1, read-out: hMAO-A inhibition; cited from earlier work
# [7] = read-out: Percentage Inhibition at 20 μM MAO-B
# [8] = 0.1 × IC50, after 100 times dilution with tyramine substrate
# [9] = 1 × IC50, after 100 times dilution with tyramine substrate
compound,measurement,setting,value
"O=C(/C=C/c1ccc(F)c(F)c1)c1ccc(N2CCOCC2)cc1 [Compound C6, (E)-3-(3,4-Difluorophenyl)-1-(4-morpholinophenyl)prop-2-en-1-one]",IC50,[1],8.45 ± 0.19 µM
same,Percentage Inhibition at 20 μM MAO-A,[1],71.67%
same,inhibition at 20 µM,[1],71.6%
same,inhibition at 20 µM,[2]; read-out: IC50 Values MAO-B,< 50%
same,inhibition at 20 µM,[2]; [7],31.9%
same,% MAO-A activity,[3]; [8],68.83%
same,% MAO-A activity,[3]; [9],38.95%
same,% MAO-A activity,"[3]; 10 × IC50, before dilution",8.32%
same,% MAO-A activity,"[3]; 100 × IC50, before dilution",3.41%
same,reversibility of hMAO-A inhibition,[3],reversibly inhibit
same,% Antioxidant Activity,[4]; 10 µM,12.25%
same,% Antioxidant Activity,[4]; 25 µM,24.46%
same,% Antioxidant Activity,[4]; 50 µM,36.03%
same,% Antioxidant Activity,[4]; 75 µM,50% and 53.39%
same,% Antioxidant Activity,[4]; 100 µM,55.16%
same,antioxidant potential in the DPPH assay,[4],more than 50%
"O=C(/C=C/c1ccc(F)cc1F)c1ccc(N2CCOCC2)cc1 [Compound C14, (E)-3-(2,4-Difluorophenyl)-1-(4-morpholinophenyl)prop-2-en-1-one]",IC50,[1],7.91 ± 0.08 µM
same,Percentage Inhibition at 20 μM MAO-A,[1],75.45%
same,inhibition at 20 µM,[1],75.4%
same,inhibition at 20 µM,[2]; read-out: IC50 Values MAO-B,< 50%
same,inhibition at 20 µM,[2]; [7],35.3%
same,% MAO-A activity,[3]; [8],65.33%
same,% MAO-A activity,[3]; [9],35.76%
same,% MAO-A activity,"[3]; 10 × IC50, before dilution",6.67%
same,% MAO-A activity,"[3]; 100 × IC50, before dilution",3.28%
same,reversibility of hMAO-A inhibition,[3],reversibly inhibit
same,% Antioxidant Activity,[4]; 10 µM,10.51%
same,% Antioxidant Activity,[4]; 25 µM,18.21%
same,% Antioxidant Activity,[4]; 50 µM,41.12%
same,% Antioxidant Activity,[4]; 75 µM,50% and 53.12%
same,% Antioxidant Activity,[4]; 100 µM,59.51%
same,antioxidant potential in the DPPH assay,[4],more than 50%
COc1cc(OC)c(/C=C/C(=O)c2ccc(F)cc2)c(OC)c1 [Compound 4],IC50,[5],444 ± 39 nM
COc1cc(OC)c(/C=C/C(=O)c2ccc(Br)cc2)c(OC)c1 [Compound 1],IC50,[5],560 ± 76 nM
COc1cc(C(=O)/C=C/c2ccc([N+](=O)[O-])cc2)cc(OC)c1OC [Compound 5],Ki,[5]; Ki,3.47 ± 0.09 µM
CCOc1ccc(C(=O)/C=C/c2ccc(F)cc2)cc1 [Compound 2],IC50,[6],4.63 ± 0.15 µM
O=C(/C=C/c1ccc(C(F)(F)F)cc1)c1ccc[nH]1 [Compound 3],IC50,[5],3810 ± 387 nM
